Assay results as given in patent US20240358848A1, “ANTITUMOR COMPOUND AND USE THEREOF” (priority 2021, published 2024).
Read-outs that look alike come from different tables or passages of the source.

Tested on: KPL-4 Cells
Test: Cell proliferation inhibition assay (CellTiter-Glo, 72 h)
Type: cell-based
Description: KPL-4 Cells in the logarithmic phase of growth were collected and re-suspended with fresh RPMI1640 complete cell culture medium, and adjusted to 2×10^4 cells/mL after cell counting. Cells were seeded into 96-well cell culture plates at 100 μL/well, and placed in a CO2 incubator (37° C., 5% CO2) overnight. In the next day, one of the cell culture plates were taken out, balanced to room temperature, and CellTiter-Glo reagent (Promega, USA), which was pre-balanced to room temperature and evenly mixed, was added into the plate at 100 μl/well. The plate was kept in dark for 30 min, and then luminescence value was read with a microplate reader (denoted as G0 value). The other cell culture plates were taken out and added with different concentrations of test compounds or DMSO (final concentration 0.5%) in corresponding wells. After incubated for 72 h in a CO2 incubator, the cell culture plates were balanced to room temperature and tested for cell viabilities using CellTiter-Glo reagent as described above (denoted as G3 value).
The cell proliferation rates were calculated using the following formula: Cell proliferation rate (%)=(mean of G3compound−mean of G0)/(mean of G3DMSO−mean of G0)×100.

[1] = KPL4, KPL-4, 72 h, read-out: GI50

Row | SMILES | GI50 (KPL4, 72 h) [nM] | GI50 [1] [nM]
1 | CC[C@@]1(O)C(=O)OCc2c1cc1n(c2=O)Cc2c-1nc1cc(F)c(C)c3c1c2[C@@H](NC(=O)CO)CC3 [DXd, reference compound] | 72 | 
2 | CC[C@@]1(O)C(=O)OCc2c1cc1n(c2=S)Cc2c-1nc1cc(F)c(C)c3c1c2[C@H](NC(=O)CO)CC3 [Y] |  | 10.3
3 | CC[C@@]1(O)C(=O)OCc2c1cc1n(c2=S)Cc2c-1nc1cc(F)c(C)c3c1c2[C@@H](NC(=O)CO)CC3 [X] |  | 13.9
